Reference: patent publication US11564911B2, “Small molecule dual-inhibitors of TRPV4 and TRPA1 for sanitizing and anesthetizing” (Duke University, priority 2016, dated 2023)

Legend:
[1] = tested on: N2a cells; test: Cell viability (resazurin) of N2a cells; assay type: cell-based; conditions: 48 h; for cellular toxicity vs inhibitory potency against TRPV4/TRPA1, factor: mouse
Experimental: FIGS. 30A-30B: Cellular toxicity studies of compounds 16-8 and 16-19. N2a cells were subjected to increasing concentrations of compounds 16-8 and 16-19, resulting cell viability was analyzed for the next 48 h. (FIG. 30A) Time course of cell viability in the presence of various concentrations of 16-8. […] Representative result of 2 independent experiments.
N2a cells were cultured in 96 well plates for 24-48 h. Cell viability studies relied on metabolic capability monitored with the indicator dye resazurin. Its reduction to resorufin (indicated by color change dark blue to pink) was monitored over time. Changes in absorbance at λ=570 nm were recorded using a microplate reader (Molecular Devices). […] Eight replicate cultures per experimental point were studied.

[2] = Compound concentration in tissues/organs and plasma by LC-MS/MS after i.p. injection; assay type: in vivo, mouse; conditions: 10 mg/kg i.p.; for compound concentration in liver and kidney / compound concentration in plasma / concentration at 1 h: 1 h; for concentration at 1 h: mouse, heart, brain, brainstem, trigeminal ganglion, skin, intraperitoneal
Experimental: Mice were treated with 10 mg/kg i.p. of the respective inhibitor. Post-euthanasia harvested tissue was frozen in liquid nitrogen and stored at −80° C. for further analysis.
Frozen tissue samples were partially thawed and cut into 1 mm slices, 5-15 mg tissue, 2-fold excess water (mass/vol.), 6-fold excess acetonitrile (16- . . . compounds) or methanol (GSK205) containing appropriate amount of internal standard, and 2.5 mm zirconia/silica bead (Biospec Products Inc.) were added to 500-μL polypropyl-ene (PP) conical tube, homogenized in a Fast-Prep apparatus (Thermo-Savant) at speed “4” for 20 sec at room temp, and centrifuged at 13,600 g for 5 min at room temp. Depending on the expected concentration range of the measured compound, the supernatant was diluted 1/4-1/20 (in Mobile phase A, see below) and placed in autosampler for LC-MS/MS analysis.
The LC-MS/MS assay for 16- . . . compounds and GSK205 was developed on an Agilent 1200 series LC system interfaced with Applied Biosystems API 5500QTrap, a hybrid triple quadruple-linear trap MS/MS spectrometer.
Analyst (version 1.6.1) software was used for mass parameters tuning, data acquisition, and quantification. LC column: 3×4 mm RP C18 (Phenomenex, AJ0-4287) was operated at 35° C. Mobile phase A: 0.1% formic acid, 2% acetonitrile, in LC/MS-grade water; mobile phase B: acetonitrile; flow rate: 1 mL/min, 1:1 MS/MS:waste split. Run time was 4 min. Diverter valve was used to send flow to MS/MS only between 1.2 and 2.5 min. The elution gradi-ent was: 0-0.5 min, 1% B; 0.5-1.2 min, 1-95% B; 1.2-1.5 min, 95% B; 1.5-1.6 min, 95-1% B. Autosampler was oper-ated at 4° C.; injection volume was kept at 10-50 μL. Electrospray ionization (ESI) source parameters were: positive ionization mode, curtain gas flow=30, ionization potential=5500 V, temperature=500° C., nebulizing gas 1 flow=30, nebulizing gas 2=30, declustering potential=20 V. 16- . . . compounds and GSK205 were individually infused as 100 nM solutions in 50% A/50% B at 10 μL/min flow rate and parameters optimized to provide maximal ion count for “parent” and collision-produced (“daughter”) MS/MS ions. Parent/daughter quantifier [qualifier] ions utilized: GSK205 (401.1/280[370]), 16-8 (400.1/279.1[91.1], 16-16 (387.1/280[105]), 16-18 (415.2/280[370], 16-19 (414.1/279.2[91.1]. Standard (analyte of interest)/internal standard pairs utilized: GSK205/16-16, 16-8/16-16, 16-18/GSK205, 16-19/16-8.
Calibration samples (n=6) were prepared by adding pure standard of the measured compound to tissue homogenate (tissue+2-fold excess water, mass/vol) in the appropriate range needed for the particular dosing regime. Organs studied were analyzed alongside the study samples. The following are typical ranges used (the lower value representing also the LLOQ at 80% accuracy limit, all other calibrator levels at 85% accuracy limit): 0.38-6 nM (plasma), 6-100 nM (skin), 6-48 nM (heart), 7.5-120 nM (brain), 19-300 or 1500-24000 nM (liver), 56-900 or 1500-12000 nM (kidney), 500-8000 nM (fat). Peak integration, calibration, and quantification was performed within Analyst software. The response of the peak area standard/int. std. to nominal concentration was linear with r=0.999 or better.

[3] = molecular target: T1, human TRPV1 (Homo sapiens, UniProt Q8NER1); test: Ca2+ signal in N2a cells transfected with human TRPV1 (capsaicin); assay type: cell-based; conditions: 5 μM capsaicin stimulation
T1 construct: expressed in transfected cells; host or cells: N2a cells
Experimental: Compounds were tested for their effect on TRPV1, TRPV2, and TRPV3. Methods were similar to those described in Example 15. Briefly, N2a cells were transfected with human TRPV1, TRPV2, or TRPV3. eGFP-transfection was used as control. For specific stimulation of TRPV1, 5 μM capsaicin was used. For stimulation of TRPV2, hypotonicity (260 mosmol/L) was used, based on previous reports of TRPV2 being osmotically responsive. N2a cells were not responsive to hypotonicity, and neither were control-transfected cells. For TRPV3-expressing cells, camphor (20% of a commercially available stock solution) was used. […] Stimulation and control protocols were applied as for TRPA1-expressing N2a cells as detailed above in Example 15.

[4] = tested on: primary mouse keratinocytes (1° MK); test: ET1 immunocytochemistry in UVB-exposed primary mouse keratinocytes; assay type: cell-based; conditions: 295 nm UVB-LED
Experimental: 1° MK were exposed to UVB using the UV optical system (295 nm LED). 24 hours later the cells were fixed and fluorescently immunolabeled for ET1. Digital images were captured and subjected to morphometry.
Mouse keratinocytes were cultured on collagen coated quartz coverslips and then stimulated from the bottom using the previously mentioned UV optical system using the 295 nm LED. 24 hours later the cells were fixed in 4% formaldehyde in PBS for 20 minutes, permeabilized with 0.1% Triton X-100 in PBS for 10 minutes, washed, then blocked in 10% normal goat serum in PBS for 45 minutes. Coverslips were incubated overnight with primary antibody mouse anti-ET1 (1:200; Abcam), washed three times in PBS and incubated with secondary antibody for 2 hours at 25° C. Coverslips were washed three times in PBS, once with double-distilled H2O. Digital images were captured using a 40× immersion lens on the BX61 Olympus upright microscope. Morphometric analysis was conducted using ImageJ freeware with tailored regions-of-interest.

T1 sequence (Q8NER1 whole entry): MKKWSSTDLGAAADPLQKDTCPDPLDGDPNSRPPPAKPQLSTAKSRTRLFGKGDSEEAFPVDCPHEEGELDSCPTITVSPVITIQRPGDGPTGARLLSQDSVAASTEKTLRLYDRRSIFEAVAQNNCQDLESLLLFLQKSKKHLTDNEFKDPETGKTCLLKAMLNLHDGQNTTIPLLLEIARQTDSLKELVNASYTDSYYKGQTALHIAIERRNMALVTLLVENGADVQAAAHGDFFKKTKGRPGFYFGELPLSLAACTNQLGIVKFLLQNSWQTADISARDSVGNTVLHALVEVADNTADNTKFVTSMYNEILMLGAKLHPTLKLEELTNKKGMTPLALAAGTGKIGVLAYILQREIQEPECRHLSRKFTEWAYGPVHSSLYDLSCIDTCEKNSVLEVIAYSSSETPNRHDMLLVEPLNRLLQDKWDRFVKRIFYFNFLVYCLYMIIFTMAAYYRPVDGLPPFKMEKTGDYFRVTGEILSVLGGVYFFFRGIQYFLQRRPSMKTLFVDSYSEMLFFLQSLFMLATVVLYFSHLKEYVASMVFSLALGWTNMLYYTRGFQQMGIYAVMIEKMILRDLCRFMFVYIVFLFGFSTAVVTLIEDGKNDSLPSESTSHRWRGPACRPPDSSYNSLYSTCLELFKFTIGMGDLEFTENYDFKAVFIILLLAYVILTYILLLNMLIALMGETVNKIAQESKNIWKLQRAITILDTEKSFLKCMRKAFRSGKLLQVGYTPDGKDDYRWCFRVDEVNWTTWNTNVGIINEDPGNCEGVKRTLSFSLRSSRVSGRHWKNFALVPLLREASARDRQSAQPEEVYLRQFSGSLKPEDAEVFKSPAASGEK

SMILES	cell viability time course at increasing concentrations [1]	cellular toxicity vs inhibitory potency against TRPV4/TRPA1, factor [1]	concentration in fat and pancreas after one hour [2]	compound concentration in liver and kidney [2]	compound concentration in plasma [2]	concentration at 1 h [2]	effect on Ca2+ transience, TRPV1 [3]	concentration at the 6 h time-point compared to the 1 h time-point ([2]; several organs)	concentration at the 24 h time-point ([2]; several organs)	ET1 immunoreactivity in UVB-exposed 1° MK [4]
CN(CCc1ccc(Nc2nc(-c3ccccc3)cs2)cc1)Cc1ccccc1 [Compound 16-8]	clear reduction at 40 and 80 μM	50-100	above its IC50	micromolar/submicromolar	virtually undetectable	< 100 nM	not affected			
CCN(CCc1ccc(Nc2nc(-c3ccccc3)cs2)cc1)Cc1ccccc1 [Compound 16-19]		50-100		micromolar/submicromolar	virtually undetectable	< 100 nM	not affected	10-20 fold	lower than at the 6 h but higher than at the 1 h time-point	
CN(CCc1ccc(Nc2nc(-c3cccnc3)cs2)cc1)Cc1ccccc1 [GSK205]										significant down-regulation
